In ChEMBL document CHEMBL3991601, “The target landscape of clinical kinase drugs” (Science, 2017) one finds Kd data, which are given here for 14 molecules.

Activity calls are given as the source filed them.

For assay [1], the target named is T1, Succinate--CoA ligase [ADP-forming] subunit beta, mitochondrial (Homo sapiens, UniProt Q9P2R7).
T1 sequence (Q9P2R7 whole entry): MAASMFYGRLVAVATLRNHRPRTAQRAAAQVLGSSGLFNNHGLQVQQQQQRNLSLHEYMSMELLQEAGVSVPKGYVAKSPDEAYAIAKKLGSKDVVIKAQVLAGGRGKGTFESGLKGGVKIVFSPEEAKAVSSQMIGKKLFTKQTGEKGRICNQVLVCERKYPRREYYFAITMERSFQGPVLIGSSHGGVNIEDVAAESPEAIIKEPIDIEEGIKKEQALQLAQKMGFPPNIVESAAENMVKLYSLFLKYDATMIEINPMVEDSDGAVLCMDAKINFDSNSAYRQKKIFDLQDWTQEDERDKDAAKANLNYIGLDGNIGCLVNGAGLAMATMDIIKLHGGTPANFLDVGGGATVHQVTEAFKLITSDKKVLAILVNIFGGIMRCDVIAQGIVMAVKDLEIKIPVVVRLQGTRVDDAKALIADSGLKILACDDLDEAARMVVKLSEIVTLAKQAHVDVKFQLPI

Assay [2] concerns the target Serine/threonine-protein kinase pim-1 (Homo sapiens, UniProt P11309).
The target of assay [3] is T2, Phosphatidylinositol 5-phosphate 4-kinase type-2 gamma (Homo sapiens, UniProt Q8TBX8).
T2 sequence (Q8TBX8 whole entry): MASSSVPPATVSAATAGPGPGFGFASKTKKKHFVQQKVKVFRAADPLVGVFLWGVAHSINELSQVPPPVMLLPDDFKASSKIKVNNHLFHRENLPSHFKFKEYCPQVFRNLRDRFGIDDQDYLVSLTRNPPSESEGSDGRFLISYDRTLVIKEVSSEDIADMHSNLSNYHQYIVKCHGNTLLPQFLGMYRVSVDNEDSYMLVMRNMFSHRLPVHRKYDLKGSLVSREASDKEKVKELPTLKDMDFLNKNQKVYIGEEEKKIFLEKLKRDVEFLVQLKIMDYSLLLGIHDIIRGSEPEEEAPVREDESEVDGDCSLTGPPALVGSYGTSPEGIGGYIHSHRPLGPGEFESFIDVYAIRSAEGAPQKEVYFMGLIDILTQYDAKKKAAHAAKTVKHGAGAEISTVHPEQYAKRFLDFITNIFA

The target in another assay is T3, dCTP pyrophosphatase 1 (Homo sapiens, UniProt Q9H773).
T3 sequence (Q9H773 whole entry): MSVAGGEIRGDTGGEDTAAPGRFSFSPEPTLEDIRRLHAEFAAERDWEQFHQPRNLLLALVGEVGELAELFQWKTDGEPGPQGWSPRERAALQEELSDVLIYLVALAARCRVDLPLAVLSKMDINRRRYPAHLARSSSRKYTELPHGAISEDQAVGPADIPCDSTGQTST

The target in assay [4] is T4, Mitogen-activated protein kinase kinase kinase 6 (Homo sapiens, UniProt O95382).
T4 sequence (O95382 whole entry): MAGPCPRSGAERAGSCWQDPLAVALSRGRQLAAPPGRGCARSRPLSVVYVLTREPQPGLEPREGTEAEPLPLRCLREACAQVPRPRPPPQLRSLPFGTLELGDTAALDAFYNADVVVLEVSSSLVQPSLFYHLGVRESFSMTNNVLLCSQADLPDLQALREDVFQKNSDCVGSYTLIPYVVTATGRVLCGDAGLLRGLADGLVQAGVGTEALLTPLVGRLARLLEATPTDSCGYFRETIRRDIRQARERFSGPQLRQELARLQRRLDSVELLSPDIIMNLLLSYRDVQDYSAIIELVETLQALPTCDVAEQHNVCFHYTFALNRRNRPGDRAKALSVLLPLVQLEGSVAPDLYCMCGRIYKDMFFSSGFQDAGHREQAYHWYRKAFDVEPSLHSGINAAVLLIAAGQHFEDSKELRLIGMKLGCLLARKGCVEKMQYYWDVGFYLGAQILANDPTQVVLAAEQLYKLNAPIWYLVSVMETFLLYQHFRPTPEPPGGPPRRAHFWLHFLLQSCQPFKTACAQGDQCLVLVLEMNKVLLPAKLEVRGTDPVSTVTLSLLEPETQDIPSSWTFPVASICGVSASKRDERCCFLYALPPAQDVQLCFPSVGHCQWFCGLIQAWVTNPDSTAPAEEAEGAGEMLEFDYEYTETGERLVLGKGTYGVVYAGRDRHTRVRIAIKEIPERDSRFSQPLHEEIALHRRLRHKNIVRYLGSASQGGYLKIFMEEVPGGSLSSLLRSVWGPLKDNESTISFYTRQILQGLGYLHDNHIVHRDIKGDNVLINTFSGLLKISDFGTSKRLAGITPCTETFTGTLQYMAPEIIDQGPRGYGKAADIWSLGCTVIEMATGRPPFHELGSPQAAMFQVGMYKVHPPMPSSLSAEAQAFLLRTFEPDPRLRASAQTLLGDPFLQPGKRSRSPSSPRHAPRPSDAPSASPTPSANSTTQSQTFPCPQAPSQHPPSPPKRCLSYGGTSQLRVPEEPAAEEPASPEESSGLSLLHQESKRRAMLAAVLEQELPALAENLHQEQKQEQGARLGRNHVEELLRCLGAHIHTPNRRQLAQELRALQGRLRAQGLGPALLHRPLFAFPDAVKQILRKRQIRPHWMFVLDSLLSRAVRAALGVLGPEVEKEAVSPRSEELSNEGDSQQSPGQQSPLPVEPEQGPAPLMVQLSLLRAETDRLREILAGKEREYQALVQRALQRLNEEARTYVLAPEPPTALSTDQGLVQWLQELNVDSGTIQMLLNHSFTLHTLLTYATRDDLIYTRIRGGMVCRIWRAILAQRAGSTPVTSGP

The target of another assay is Myosin-14 (Homo sapiens, UniProt Q7Z406).
Sequence of Myosin-14 (Q7Z406 whole entry): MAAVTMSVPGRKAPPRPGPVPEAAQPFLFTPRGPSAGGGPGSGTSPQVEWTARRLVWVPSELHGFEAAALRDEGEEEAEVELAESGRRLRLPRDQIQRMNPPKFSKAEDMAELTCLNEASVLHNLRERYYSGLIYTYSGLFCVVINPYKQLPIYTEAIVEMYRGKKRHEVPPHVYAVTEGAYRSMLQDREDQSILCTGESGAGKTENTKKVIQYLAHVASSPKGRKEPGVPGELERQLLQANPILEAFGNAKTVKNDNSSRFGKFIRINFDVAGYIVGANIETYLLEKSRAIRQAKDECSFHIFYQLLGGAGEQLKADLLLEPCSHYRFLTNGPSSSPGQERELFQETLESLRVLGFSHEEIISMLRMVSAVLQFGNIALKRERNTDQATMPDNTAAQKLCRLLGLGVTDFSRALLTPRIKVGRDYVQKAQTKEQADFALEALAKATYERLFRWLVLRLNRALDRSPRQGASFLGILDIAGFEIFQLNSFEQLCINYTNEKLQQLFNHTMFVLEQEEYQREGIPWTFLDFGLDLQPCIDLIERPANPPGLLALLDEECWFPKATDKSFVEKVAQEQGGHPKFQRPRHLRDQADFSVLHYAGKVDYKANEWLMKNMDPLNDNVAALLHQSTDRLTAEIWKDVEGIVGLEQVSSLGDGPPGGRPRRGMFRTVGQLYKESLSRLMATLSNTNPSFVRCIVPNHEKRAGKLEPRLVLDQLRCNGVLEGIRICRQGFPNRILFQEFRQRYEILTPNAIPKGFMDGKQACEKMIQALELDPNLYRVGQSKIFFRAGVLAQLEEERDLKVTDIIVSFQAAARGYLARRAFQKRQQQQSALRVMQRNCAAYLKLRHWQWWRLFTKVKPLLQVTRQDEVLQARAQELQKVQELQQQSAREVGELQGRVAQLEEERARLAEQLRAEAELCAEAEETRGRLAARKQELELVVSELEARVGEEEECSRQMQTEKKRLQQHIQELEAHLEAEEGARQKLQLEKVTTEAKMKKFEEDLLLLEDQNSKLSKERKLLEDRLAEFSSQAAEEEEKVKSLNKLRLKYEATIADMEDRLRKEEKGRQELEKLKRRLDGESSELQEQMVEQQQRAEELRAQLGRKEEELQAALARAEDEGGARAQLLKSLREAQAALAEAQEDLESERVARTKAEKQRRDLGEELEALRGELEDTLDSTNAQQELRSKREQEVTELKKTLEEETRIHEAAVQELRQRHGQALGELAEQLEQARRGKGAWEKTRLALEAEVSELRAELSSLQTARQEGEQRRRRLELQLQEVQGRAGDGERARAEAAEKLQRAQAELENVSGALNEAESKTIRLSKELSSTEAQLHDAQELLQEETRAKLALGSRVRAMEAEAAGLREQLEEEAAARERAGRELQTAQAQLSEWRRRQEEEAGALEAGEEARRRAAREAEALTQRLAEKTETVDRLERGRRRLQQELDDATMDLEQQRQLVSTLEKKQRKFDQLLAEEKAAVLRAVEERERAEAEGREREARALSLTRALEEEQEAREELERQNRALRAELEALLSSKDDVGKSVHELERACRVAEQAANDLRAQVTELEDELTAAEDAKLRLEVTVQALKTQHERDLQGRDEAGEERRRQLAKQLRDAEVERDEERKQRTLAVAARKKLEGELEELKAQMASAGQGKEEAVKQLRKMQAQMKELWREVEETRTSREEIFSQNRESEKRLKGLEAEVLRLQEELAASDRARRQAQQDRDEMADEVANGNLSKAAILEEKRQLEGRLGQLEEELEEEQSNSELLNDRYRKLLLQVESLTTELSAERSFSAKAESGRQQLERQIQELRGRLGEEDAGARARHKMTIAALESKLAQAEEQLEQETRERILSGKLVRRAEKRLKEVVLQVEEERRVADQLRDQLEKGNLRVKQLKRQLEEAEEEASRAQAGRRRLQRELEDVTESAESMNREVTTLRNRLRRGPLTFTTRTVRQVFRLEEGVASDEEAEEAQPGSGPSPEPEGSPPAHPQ
In a further assay the target is T5, Rab-like protein 3 (Homo sapiens, UniProt Q5HYI8).
T5 sequence (Q5HYI8 whole entry): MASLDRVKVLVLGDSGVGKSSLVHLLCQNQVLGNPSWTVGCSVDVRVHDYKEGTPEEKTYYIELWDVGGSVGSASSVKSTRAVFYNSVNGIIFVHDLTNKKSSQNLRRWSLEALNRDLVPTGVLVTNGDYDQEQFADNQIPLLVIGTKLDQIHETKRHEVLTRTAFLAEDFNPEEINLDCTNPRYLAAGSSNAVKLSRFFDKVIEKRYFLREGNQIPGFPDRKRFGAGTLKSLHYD
Note: in the data inactive means no Kd found up to 30 µM.

Sequence of Serine/threonine-protein kinase pim-1 (P11309 whole entry): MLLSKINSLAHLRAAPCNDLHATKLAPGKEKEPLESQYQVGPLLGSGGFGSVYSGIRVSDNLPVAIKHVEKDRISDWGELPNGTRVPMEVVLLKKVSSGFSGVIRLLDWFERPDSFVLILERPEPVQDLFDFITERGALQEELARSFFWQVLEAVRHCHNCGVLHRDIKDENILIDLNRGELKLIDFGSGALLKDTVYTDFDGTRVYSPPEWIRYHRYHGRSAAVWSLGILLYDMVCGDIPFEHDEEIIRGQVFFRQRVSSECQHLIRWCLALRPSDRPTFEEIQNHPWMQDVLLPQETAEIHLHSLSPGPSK

The term Kd denotes the constant that tells how readily two partners part at equilibrium. In the case of `C=CC(=O)Nc1cccc(Nc2nc(Nc3ccc(N4CCN(C(C)=O)CC4)cc3OC)ncc2C(F)(F)F)c1` [ROCILETINIB], the Kd (in assay [1]; in assay [2]; in assay [3]; on dCTP pyrophosphatase 1; in assay [4]; at Myosin-14) was > 30 µM (inactive) each time. Also, the Kd at Rab-like protein 3 was > 30 µM (inactive).

Turning to `O=c1[nH]c([C@@H]2CCCN2)nc2c1oc1ccc(Cl)cc12`, the Kd in assay [1] is > 30 µM (inactive); in assay [2], 0.022 µM (active); in assay [3], > 30 µM (inactive); at dCTP pyrophosphatase 1 it was > 30 µM (inactive); in assay [4] it was > 30 µM (inactive); on Myosin-14, > 30 µM (inactive). Further, at Rab-like protein 3, the Kd is > 30 µM (inactive).

Regarding `Cc1c(Cn2c(C)nc3c(C(=O)O)cc(N4CCOCC4)cc32)cccc1C(F)(F)F` [GSK-2636771], the Kd (in assay [1]; in assay [2]; in assay [3]; at dCTP pyrophosphatase 1; in assay [4]; at Myosin-14) was > 30 µM (inactive) each time. The Kd at Rab-like protein 3 was > 30 µM (inactive).

In the case of `COc1cc2ncnc(Nc3ccc(O)cc3)c2cc1OC` [WHI-P131], the Kd (in assay [1]; in assay [2]; in assay [3]; at dCTP pyrophosphatase 1; in assay [4]; at Myosin-14) was > 30 µM (inactive) throughout. Further, the Kd on Rab-like protein 3 is > 30 µM (inactive).

Consider `Cn1c(=O)c(F)c(Nc2ccc(I)cc2F)c2c(=O)n(C[C@@H](O)CO)cnc21` [TAK-733], for which the Kd (in assay [1]; in assay [2]; in assay [3]; at dCTP pyrophosphatase 1; in assay [4]; at Myosin-14) was > 30 µM (inactive) in each case. The Kd at Rab-like protein 3 is > 30 µM (inactive).

Regarding `COc1cccc(Nc2ncnn3ccc(CN4CC[C@@H](N)[C@H](O)C4)c23)c1` [BMS-690514], the Kd (in assay [1]; in assay [2]; in assay [3]; at dCTP pyrophosphatase 1; in assay [4]; on Myosin-14) was > 30 µM (inactive) each time. At Rab-like protein 3, the Kd is > 30 µM (inactive).

As to `S=C(NCc1ccc2c(c1)OCO2)N1CCN(c2ncnc3c2oc2ccccc23)CC1` [AMUVATINIB], the Kd (in assay [1]; in assay [2]; in assay [3]; at dCTP pyrophosphatase 1; in assay [4]; at Myosin-14) was > 30 µM (inactive) each time. For the same molecule, the Kd at Rab-like protein 3 is > 30 µM (inactive).

Consider `Cn1cc(-c2[nH]c3cc(NC(=O)[C@H](N)C4CCCCC4)cc4c3c2C=NNC4=O)cn1`, for which the Kd (in assay [1]; in assay [2]; in assay [3]; at dCTP pyrophosphatase 1; in assay [4]; at Myosin-14) was > 30 µM (inactive) in each case. Further, the Kd at Rab-like protein 3 was > 30 µM (inactive).

Take `CC(C)(O)CC(=O)NCCn1ccc2ncnc(Nc3ccc(Oc4cccc(C(F)(F)F)c4)c(Cl)c3)c21` [TAK-285]: the Kd (in assay [1]; in assay [2]; in assay [3]; at dCTP pyrophosphatase 1; in assay [4]; on Myosin-14) was > 30 µM (inactive) each time. Also, on Rab-like protein 3, the Kd was > 30 µM (inactive).

For the molecule `C[C@@H]1COC(Nc2ccc3ncnc(Nc4ccc(OCc5nccs5)c(Cl)c4)c3c2)=N1` [VARLITINIB], the Kd (in assay [1]; in assay [2]; in assay [3]; on dCTP pyrophosphatase 1; in assay [4]; on Myosin-14) was > 30 µM (inactive) each time. Also, the Kd on Rab-like protein 3 is > 30 µM (inactive).

Turning to `O=C(NC[C@H](O)CO)c1ccncc1Nc1ccc(I)cc1F` [PIMASERTIB], the Kd (in assay [1]; in assay [2]; in assay [3]; on dCTP pyrophosphatase 1; in assay [4]; at Myosin-14) was > 30 µM (inactive) each time. Moreover, the Kd on Rab-like protein 3 was > 30 µM (inactive).

In the case of `CCc1cc2c(cc1N1CCC(N3CCOCC3)CC1)C(C)(C)c1[nH]c3cc(C#N)ccc3c1C2=O` [ALECTINIB], the Kd (in assay [1]; in assay [2]; in assay [3]; on dCTP pyrophosphatase 1; in assay [4]; at Myosin-14) was > 30 µM (inactive) throughout. The Kd at Rab-like protein 3 is > 30 µM (inactive).

With `CN1CCN(c2nc(C3=C(c4c[nH]c5ccccc45)C(=O)NC3=O)c3ccccc3n2)CC1` [SOTRASTAURIN], the Kd in assay [1] is > 30 µM (inactive); in assay [2] it was 8.84 µM; in assay [3], > 30 µM (inactive); on dCTP pyrophosphatase 1, > 30 µM (inactive); in assay [4], > 30 µM (inactive); on Myosin-14, > 30 µM (inactive). In addition, the Kd on Rab-like protein 3 was > 30 µM (inactive).

`COc1cccc2cc(-c3nc([C@H]4CC[C@H](C(=O)O)CC4)n4ncnc(N)c34)[nH]c12` [OSI-027]: the Kd in assay [1] is > 30 µM (inactive); in assay [2], > 30 µM (inactive); in assay [3] it was 4.97 µM; at dCTP pyrophosphatase 1 it was > 30 µM (inactive); in assay [4] it was > 30 µM (inactive); at Myosin-14, > 30 µM (inactive). Further, the Kd at Rab-like protein 3 is > 30 µM (inactive).
